Data from patent US11827628B2, “Compositions and methods for inhibition of the JAK pathway” (Rigel Pharmaceuticals, Inc., priority 2005, dated 2023).

Test system: Primary human T-cells
Assay: Primary Human T-Cell Proliferation Assay Stimulated with IL-2 (CellTiter-Glo)
Format: cell-based
Details: Homo sapiens, T-cell, primary human T-cells stimulated with IL-2, proliferation; read-out: IC50, Example 42
In short: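 Peripheral blood T-cells pre-activated with anti-CD3/anti-CD28 and IL-2 were washed free of IL-2, then cultured with compound plus IL-2 for 72 hours at 37° C, duplicate wells. Viability read as ATP by CellTiter-Glo luminescence; IC50 reported.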

Row | SMILES | IC50
1 | NS(=O)(=O)c1cccc(Nc2ncc(F)c(Nc3ccc4sccc4c3)n2)c1 [VII-58, N2-(3-Aminosulfonylphenyl)-N4-(benzothiophen-5-yl)-5-fluoro-2,4-pyrimidinediamine] | 265 nM
2 | Cc1ccc(Nc2ncc(F)c(Nc3ccc4ncccc4c3)n2)cc1S(N)(=O)=O [VII-69, N2-(3-Aminosulfonyl-4-methylphenyl)-5-fluoro-N4-(quinolin-6-yl)-2,4-pyrimidinediamine] | 696 nM
3 | NS(=O)(=O)c1cccc(Nc2ncc(F)c(Nc3ccc4ncccc4c3)n2)c1 [VII-70, N2-(3-Aminosulfonylphenyl)-5-fluoro-N4-(quinolin-6-yl)-2,4-pyrimidinediamine] | 375 nM
4 | Cc1ccc2cc(Nc3nc(Nc4ccc(C)c(S(N)(=O)=O)c4)ncc3F)ccc2n1 [VII-71, N2-(3-Aminosulfonyl-4-methylphenyl)-5-fluoro-N4-(2-methylquinolin-6-yl)-2,4-pyrimidinediamine] | 569 nM
5 | Cc1ccc2cc(Nc3nc(Nc4cccc(S(N)(=O)=O)c4)ncc3F)ccc2n1 [VII-72, N2-(3-Aminosulfonylphenyl)-5-fluoro-N4-(2-methylquinolin-6-yl)-2,4-pyrimidinediamine] | 415 nM
6 | Cc1ccc(Nc2ncc(F)c(Nc3cccc4cccnc34)n2)cc1S(N)(=O)=O [VII-77, N2-(3-Aminosulfonyl-4-methylphenyl)-5-fluoro-N4-(quinolin-8-yl)-2,4-pyrimidinediamine] | 1780 nM
